Results: patent US10591478B2, “Methods for molecular classification of fatty liver by high-throughput protein post-translational modifications” (ROSEMAN UNIVERSITY OF HEALTH SCIENCES, priority 2015, dated 2020)
“Also recorded” adds a separate entry of the source.

Assays:
FOXO1 = assay: cIEF immunoassay of FOXO1 pI distribution in HepG2 cells; format: cell-based; details: 48 hours
Description: A NanoPro 1000 cIEF system (Protein Simple, Santa Clara, Calif., USA) was employed for profiling protein PTM. Samples of 400 nl volume were separated by isoelectric focusing using the 96-capillary system, followed by immobilization of the proteins onto the inner capillary walls. Primary and secondary antibodies (Tables 2 and FIG. 6) were introduced into the capillaries, followed by chemiluminescence detection reagents. The incubation times were 110 and 55 min for primary and secondary antibodies, respectively. The separation time was 50 minutes at […]. All samples were loaded in triplicate into capillaries to evaluate the consistency of capillary-to-capillary measurement. Each experiment was performed in triplicate to ensure repeatability. A minimum of nine cIEF measurements were done for each protein per animal group. […]
HepG2 cells were maintained in DMEM media with 25 mM glucose and 10% fetal calf serum. […] Total HepG2 cell extracts were collected and evaluated with 1D Western blots using antibodies against O-GlcNAc.
HepG2 cells were transiently transfected with an expression vector that expressed FOXO1 with a Myc-DDK tag (Cat. No. RC200477, Origene, Rockville, Md.). […] HepG2 cells were treated for 48 hours with 500 μM glucosamine Total HepG2 cell extracts were collected and evaluated with 1D and 2D Western blots using antibodies against FLAG tag. […]

HepG2 cells = assay: 1D Western blot of HepG2 total cell extracts with antibodies against O-GlcNAc; format: cell-based; details: HepG2, 100 μM PUGNAc, 48 hours
Description: HepG2 cells were maintained in DMEM media with 25 mM glucose and 10% fetal calf serum. HepG2 cells were treated for 48 hours with 100 μM PUGNAc (Cat. No. A7229, Sigma, St. Louis, Mo.). Total HepG2 cell extracts were collected and evaluated with 1D Western blots using antibodies against O-GlcNAc.
HepG2 cells were first lysed with M-Per lysis buffer (Pierce, Rockford, Ill., USA) in the presence of protease and phosphatase inhibitors. For cIEF immunoassays, total cell lysates were prepared in Premix G2 pH 5-8 separation gradient containing pI standards (ProteinSimple).
HepG2 total cell extracts were analyzed on 10% SDS-polyacrylamide gel. Secondary antibodies were purchased from LI-COR (Lincoln, Nebr., Cat. No. 92668070). Immunoblots were detected with the LI-COR's Odyssey CLx imaging system.

LCAD = assay: cIEF immunoassay PTM profile of LCAD in liver tissues; format: in vivo, mouse; details: C57BL/6J+F liver vs control C57BL/6J
Description: (§1) C57BL/6 J and UPase1-TG mice were fed a lean diet that provides 4.6 kcal/g (22% by calorific value from fat, 23% from protein, and 55% from carbohydrates; PicoLab Mouse Diet, Catalog No 5058, LabDiet, Brentwood, Mo., USA). C57BL/6 J+LD mice were fed a lean diet for 16 weeks. C57BL/6 J+F mice were fed a lean diet supplemented with fenofibrate (400 mg/kg per day) for 5 days. C57BL/6 J+HFD mice were fed a high-fat diet that provides 5.24 kcal/g (60% from fat, 20% from protein, and 20% from carbohydrates) for 16 weeks (Catalog No D12492, Research Diets Inc, New Brunswick, N.J., USA). C57BL/6 J mice served as a control for C57BL/6 J+LD, UPase1-TG, and C57BL/6 J+F mice. On the other hand, C57BL/6 J+LD mice served as a control for C57BL/6 J+HFD mice. All animal studies were performed in conformity with the Public Health Service Policy on Humane Care and Use of Laboratory Animals and with the approval of the Animal Care and Use Committees at Nevada Cancer Institute, Desert Research Institute, and Touro University Nevada.
(§2) Approximately 500 mg of frozen liver tissues was added to 300 μl of RIPA buffer (Cat. No. 8990, Life Technologies, Grand Island, N.Y. 14702) containing proteinase and phosphatase inhibitors and homogenized twice at 6 seconds duration. […]

HMGCS2 = assay: cIEF immunoassay PTM profile of HMGCS2 in liver tissues; format: in vivo, mouse; details: C57BL/6J+F liver vs C57BL/6J
Description: as §1, §2

[1] = system: liver tissues (hepatic steatosis); assay: Assessment of hepatic steatosis with CARS microscopy and Oil Red O histology; format: in vivo, mouse; details: C57BL/6J+F mice, fenofibrate diet (400 mg/kg per day) for 5 days
Description: as §1

PFK1 = assay: cIEF immunoassay PTM profile of PFK1 in liver tissues; format: in vivo, mouse; details: C57BL/6J+F liver vs control C57BL/6J
Description: as §1, §2

LCAT = assay: cIEF immunoassay PTM profile of LCAT in liver tissues; format: in vivo, mouse
Description: as §1, §2

ERK1/2 = assay: cIEF immunoassay phosphorylation profile of ERK1/2 in liver tissues; format: in vivo, mouse; details: C57BL/6J+F liver vs control C57BL/6J
Description: as §1, §2

ChREBP = assay: cIEF immunoassay PTM profile of ChREBP in liver tissues; format: in vivo, mouse; details: C57BL/6J+F liver vs control C57BL/6J
Description: as §1, §2

Akt = assay: cIEF immunoassay phosphorylation profile of Akt in liver tissues; format: in vivo, mouse; details: C57BL/6J+F liver vs C57BL/6J
Description: as §1, §2

FLAG-tagged FOXO1 = assay: 2D Western blot of FLAG-tagged FOXO1 in HepG2 cells; format: cell-based; details: HepG2 transfected with FLAG-tagged FOXO1, 500 μM glucosamine, 48 hours
Description: HepG2 cells were transiently transfected with an expression vector that expressed FOXO1 with a Myc-DDK tag (Cat. No. RC200477, Origene, Rockville, Md.). Transfection reagent was purchased from Life Technologies (Lipofectamine 2000, Cat. No. 11668-019, Grand Island, N.Y. 14702). HepG2 cells were treated for 48 hours with 500 μM glucosamine Total HepG2 cell extracts were collected and evaluated with 1D and 2D Western blots using antibodies against FLAG tag.
2D Western blots of HepG2 total protein extracts were performed by Kendrick Laboratories (Madison, Wis.). Total protein extracts was diluted with 100 ul of SDS Boiling Buffer and microdialyzed overnight using 6-8,000 MWCO membrane at 4° C. Samples were then lyophilized and redissolved to 3.33 mg/ml in diluted SDS boiling Buffer:Urea Sample Buffer before loading. A total of 500 μg of total protein extracts or 150 μl was loaded for isoeletric focusing. Carrier ampholine method of isoelectric focusing was carried out in a glass tube of inner diameter 3.3 mm using 2.0% pH 4-8 mix Servalytes (Serva, Heidelberg, Germany) for 20,000 volt-hrs. After equilibration for 10 minutes in 10% glycerol, 50 mM dithiothreitol, 2.3% SDS and 0.0625 M tris, pH 6.8, each tube gel was sealed to the top of a stacking gel that overlaid a 10% acrylamide slab gel. SDS slab gel electrophoresis was carried out for about 5 hours at 25 mA/gel. […]

Question: How did the “new FOXO1 peak, pI” value (FOXO1; HepG2, 100 μM PUGNAc) turn out when `CC(=O)N[C@H]1/C(=N/OC(=O)Nc2ccccc2)O[C@H](CO)[C@@H](O)[C@@H]1O` [PUGNAc] was run?
Answer: 8.25 pI

Question: And the “overall protein O-linked glycosylation profile of HepG2 total cell extract” value (HepG2 cells)?
Answer: increased

Question: `CC(C)OC(=O)C(C)(C)Oc1ccc(C(=O)c2ccc(Cl)cc2)cc1` [fenofibrate] was tested. Which “glycosylated LCAD isoform, folds higher, areas under the curve” value (LCAD) did it give?
Answer: 2 folds

Question: What about the “PTM increase for HMGCS2, areas under the curve from pI 5.7 to 6.4” value (HMGCS2) of the same compound?
Answer: 2 folds

Question: And the Fatty liver classification [1]?
Answer: severe microvesicular steatosis

Question: What about the “reduction of phosphorylated PFK-1 isoform, areas under the curve” value (PFK1) of the same compound?
Answer: ~10 folds

Question: What about the “LCAT observed pI value” (LCAT; C57BL/6J+F liver) of the same compound?
Answer: 5.8 pI

Question: And the “glycosylated LCAT isoforms, folds lower” value (LCAT; C57BL/6J+F liver vs C57BL/6J)?
Answer: ~10 folds

Question: And the “increase of ERK1/2 phosphorylated isoforms, areas under the curve” value (ERK1/2)?
Answer: ~30%

Question: And the “reduction of phosphorylated ChREBP isoforms” value (ChREBP)?
Answer: 60%

Question: And the “Akt phosphorylation level, lower compared to control” value (Akt)?
Answer: approximately 30%

Question: For `N[C@H]1C(O)O[C@H](CO)[C@@H](O)[C@@H]1O` (stereo partly shown) [glucosamine], which “FLAG-tagged FOXO1 pI on 2D Western blot” value (FLAG-tagged FOXO1) is on record?
Answer: shift to FLAG-tagged FOXO1 toward basic pI values; also recorded: additional gel spot at a basic pI value

Question: What about the “FOXO1 peaks in cIEF, pI” value (FOXO1; HepG2, 500 μM glucosamine) of the same compound?
Answer: > 7.5 pI
